Reference: US10001485B2, “Methods for sensitizing a quiescent cancer stem cell to a BCR-ABL inhibitor” (The Regents of the University of California, priority 2011, dated 2018)

Assays:
[1] = test system: BC LSC; assay: Serial transplantation of treated bone marrow into secondary recipients, survival; format: in vivo, RAG2−/−γc−/− mice
Excerpt: (§1) Immunocompromised RAG2^−/−yc^−/− mice were bred and maintained in the University of California San Diego Moores Cancer Center vivarium. Neonatal mice were transplanted intrahepatically with 50,000-200,000 CD34^+ cells according to our previously published methods (see Jaiswal, S. et al. cited above and Jamieson, C. H., et al. cited above). Transplanted mice were screened for tumor formation or human engraftment in peripheral blood by FACS at 6-8 weeks post-transplant. Upon detection of tumors, peripheral blood engraftment, or at 8-12 weeks post-transplant engrafted mice were treated for 2 weeks with dasatinib (daily, 50 mg/kg/day in 50% PEG, 50% PBS by oral gavage), sabutoclax (3 days per week, 5 mg/kg/day in 10% EtOH, 10% Cremaphor EL (Sigma Aldrich) 80% PBS by IP injection), or drug vehicles. Twenty-four hours post-treatment (10-14 weeks post-transplant), mice were euthanized and single cell suspensions of hematopoietic tissues were analyzed for human engraftment by FACS as described previously (see Jaiswal, S. et al. and Jamieson, C. H., et al. cited above). For in vivo combination studies, dasatinib was used at 25 or 50 mg/kg while sabutclax was used at 1.25 or 2.5 mg/kg with the same dosing regimen described above. For serial transplantation, a mix of whole mouse bone marrows was made from mice in the same treatment group. Total bone marrow cells were then counted by using Guava ViaCount Reagent and analysis on a Guava PCA system (Millipore), and transplanted in equal numbers into secondary neonatal recipients by intrahepatic injection. 250,000 whole bone marrow cells per mouse were injected.

[2] = test system: marrow-engrafted BC LSC; assay: FACS cell cycle analysis (Ki-67/7-AAD) of bone marrow engrafted BC CML cells; format: in vivo, RAG2−/−γc−/− mice; conditions: FIG. 7
Excerpt: Single cell suspensions of bone marrow cells from mice treated with sabutoclax or vehicle were immunostained with Alexa405-conjugated anti-human CD45 (Invitrogen), Alexa647-anti-human CD38 (Ab Serotec) and biotin-anti-human CD34 (Invitrogen) plus Alexa488-strepavidin (Invitrogen) in 2% fetal bovine serum/PBS-followed by live cell staining using the LIVE/DEAD® Fixable Near-IR Dead Cell Stain Kit (Invitrogen). Surface stained cells were then fixed in 70% ethanol overnight. […] Stained samples were analyzed using a FACSAria and FlowJo.

[3] = test system: BCL2 and MCL1; assay: Bone marrow BCL2, MCL1 and Ki67 IHC analysis of treated engrafted marrow; format: in vivo, RAG2−/−γc−/− mice; conditions: following sabutoclax treatment; data not shown
Experimental: For IHC, femurs were harvested from transplanted, treated animals, fixed and decalcified in Cal-Ex II (Fisher Scientific, Fair Lawn, N.J.) for 48 hrs, followed by standard tissue processing, paraffin-embedding and sectioning. Paraffin tissue sections were deparaffinized, rehydrated, and boiled in antigen retrieval solution (BD, California) (pH 6.0) for 10 min to retrieve antigen. Tissues were blocked with 5% bovine serum albumin (BSA) and 0.25% Triton X-100 in PBS for 30 min and incubated with primary antibody in PBS with 1% BSA at 4° C. for 16 h. Primary antibodies used were human CD45 (Abcam) and ki67 (BD). IHC staining was then carried out with LSAB System-HRP Kit (Dako Cytomation, Hamburg, Germany) according to manufacturer's protocol using methyl green (Sigma Aldrich) as counterstaining. […] All sections were mounted before examination using a Nikon Eclipse E600 microscope. […]
Bone specimens were fixed and mildly decalcified in Bouin's solution (Sigma-Aldrich, St. Louis, Mo.) for 8 h at room temperature, then postfixed in zinc-containing buffered formalin (Z-Fix; Anatech Ltd., Battle Creek, Mich.) for 3 days at 4° C., and embedded in paraffin. […] The Spectrum Analysis algorithm package and ImageScope analysis software (version 9; Aperio Technologies, Inc.) were applied to quantify IHC stainings.

[4] = test system: BC LSC-engrafted marrow; assay: TUNEL apoptosis analysis of engrafted bone marrow; format: in vivo, RAG2−/−γc−/− mice; conditions: following sabutoclax treatment
Excerpt: For apoptosis analysis, bone marrows are stained using the ApopTag fluorescein in situ TUNEL apoptosis detection kit (Chemicon, #S7110) following the manufacturer's protocol. Sections are mounted as above. Images are acquired using an Applied Imaging Ariol SL-50 automated scanning microscope and image analysis system.

[5] = test system: BC LSC (human BC CML CD34+CD38+ progenitors); assay: BC LSC engraftment in vivo (FACS) in mice transplanted with human BC CML CD34+ cells; parameters: species or system RAG2−/−γc−/− mice; conditions: for Mean (SEM) engraftment of CD34+CD38+ cells, Blood / Mean (SEM) engraftment of CD34+CD38+ cells, Marrow / Mean (SEM) engraftment of CD34+CD38+ cells, Spleen: 2 weeks; for effect on marrow LSC engraftment compared to vehicle treated controls: lower doses: sabutoclax 1.25 mg/kg, dasatinib 25 mg/kg
Excerpt: as §1

[6] = High dose treatment (sabutoclax 2.5 mg/kg, dasatinib 50 mg/kg)
[7] = Low dose treatment (sabutoclax 1.25 mg/kg, dasatinib 25 mg/kg)

Compound	2° TP - Median survival ([1]; High dose treatment)	2° TP - Median survival ([1]; Low dose treatment)	G2/S cells in engrafted marrow [2]	BCL2 and MCL1 immunopositive cells in BC LSC-engrafted marrow [3]	TUNEL+ apoptotic cells in engrafted marrow [4]	LSC engraftment in all hematopoietic tissues including bone marrow ([5]; 5 mg/kg, FIG. 5b)	Mean (SEM) engraftment of CD34+CD38+ cells, Blood [5, 6]	Mean (SEM) engraftment of CD34+CD38+ cells, Marrow [5, 6]	Mean (SEM) engraftment of CD34+CD38+ cells, Spleen [5, 6]	Mean (SEM) engraftment of CD34+CD38+ cells, Blood [5, 7]	Mean (SEM) engraftment of CD34+CD38+ cells, Marrow [5, 7]	Mean (SEM) engraftment of CD34+CD38+ cells, Spleen [5, 7]	effect on marrow LSC engraftment compared to vehicle treated controls [5]
Cc1cc2c(C(=O)NC[C@H](C)c3ccccc3)c(O)c(O)cc2c(O)c1-c1c(C)cc2c(C(=O)NC[C@H](C)c3ccccc3)c(O)c(O)cc2c1O [Sabutoclax]	45 days	74 days	slight increase	reduced amount	increased	significantly reduced	24.5 (17.6)	30.01 (23.2)	5.1 (1.5)	11.0 (3.8)	34.2 (12.5)	12 (2.7)	no significant effect
Cc1nc(Nc2ncc(C(=O)Nc3c(C)cccc3Cl)s2)cc(N2CCN(CCO)CC2)n1 [Dasatinib, dasatinib]	43 days	79 days	–	–	–	–	3.1 (2.4)	21.23 (2.4)	0.2 (0.07)	2.1 (0.9)	28.8 (10.7)	2.0 (0.8)	no significant effect
